{"source": "patent EP2068152A1", "about": "“c-Kit as a novel target for the treatment of pain” (Max-Delbrück-Centrum für Molekulare Medizin (MDC), priority 2007, dated 2009)", "key": {"[1]": {"tested_on": "Aβ mechanoreceptors", "details": "animals treated as adults with imatinib"}, "[2]": {"tested_on": "c-Kit", "assay": "Paw withdrawal test (radiant heat)", "assay_type": "in vivo, mice", "experimental": "Paw withdrawal test. In the radiant paw-withdrawal test the mice were placed in a Plexiglas chamber (15 cm diameter, 22.5 cm in height). The stimulus was a high intensity beam directed at the plantar surface of the hindpaw; movement of the paw away from the beam results in the heat source being terminated, with the withdrawal latency indicated on a digital screen (Ugo Basile, Milan, Italy). Paw withdrawal latencies were determined alternately from both hindpaws (stimuli given every 30- 40 s). Criteria for inclusion of a data point were calm behavior of the mouse just prior to testing, and a clear paw withdrawal from the hot beam associated with paw flicking and grooming. Baseline values were taken once a day at the same time for a period of 3 days. c-Kit ligand (Stem Cell Factor, SCF, R&D Systems) was injected once intraperitoneally (1 mg/kg i.p.) into TRPV1 -l- and control C57B1/6 mice (adult females, 6- 8 weeks, 20-25 g body weight), and response latencies to radiant heating of the hind paw was measured at various times after injection as described.\nThe inventors therefore used the mast cell degranulating agent 48/80 to deplete resident mast cells of neuroactive substances prior to the administration of SCF."}, "[3]": {"tested_on": "C-fiber nociceptors", "assay": "In vitro skin nerve preparation: noxious heat response of CMH fibers from treated mice", "assay_type": "in vivo", "experimental": "The conduction velocity cut-off between Aβ and Aδ fibers was determined to be 9 m/s in c-Kit mutants based on measurements of the Aβ and Aδ wave in compound action potential recordings as previously described (Koltzenburg et al., 1997)."}}, "data": [{"smiles": "Cc1ccc(NC(=O)c2ccc(CN3CCN(C)CC3)cc2)cc1Nc1nccc(-c2cccnc2)n1", "note": "[imatinib, 4-[(4-Methyl-1-piperazinyl)methyl]-N-[4-methyl-3-[[4-(3-pyridinyl)-2-pyrimidinyl]amino]-phenyl]benzamide]", "values": [{"measurement": "proportion of RAM and SAM receptors", "setting": "[1]", "value": "no change in proportion of RAM and SAM receptors"}, {"measurement": "foot withdrawal latency to noxious heat", "setting": "[2]; 5 days after daily imatinib treatment, 0.1 mg/g sub-cutaneously, n=6, vehicle treated mice 129 ±35%", "value": "160 ±39 % of starting values"}, {"measurement": "thermal hyperalgesia after SCF in pre-treated mice", "setting": "[2]; two subcutaneous injections (0.1 mg/g) 18 hrs and 1 hr before SCF (1 µg/g, i.p.)", "value": "did not display any significant thermal hyperalgesia"}, {"measurement": "C-fiber heat sensitivity", "setting": "[3]; imatinib 0.1 mg/g sub-cutaneously for 6-7 days", "value": "reduction in C-fiber heat sensitivity that was almost identical to that found in c-Kit^-/- and c-Kit^+/- mice"}, {"measurement": "number of spikes per 1 second time window during the heat ramp (CMH fibers), curve versus control", "setting": "[3]; imatinib treated adult mice, heat ramp 32°C to 60°C, Two way ANOVA F=7.67 p<0.01", "value": "significantly different from control"}, {"measurement": "fibers with responses >60 spikes/stimulus (high responders)", "setting": "[3]; imatinib treated mice, figure stated together with c-kit mutant mice, control C-fibers 47%", "value": "~16", "unit": "%"}]}]}
